The source of these data is ChEMBL document CHEMBL3352229, “20(S)-Ginsenoside Rh2 as aldose reductase inhibitor from Panax ginseng” (Bioorg Med Chem Lett, 2014).

This assay addresses Aldo-keto reductase family 1 member B1 (Homo sapiens, UniProt P15121). As to the kind of experiment: Inhibition of human recombinant aldose reductase using DL-glyceraldehyde, HRAR and beta-NADPH incubated for 10 mins by spectrophotometry.

For orientation: IC50 means the midpoint of a concentration-inhibition curve. With `CC(C)=CCC[C@@](C)(O)[C@H]1CC[C@]2(C)[C@@H]1[C@H](O)C[C@@H]1[C@@]3(C)CC[C@H](O[C@@H]4O[C@H](CO)[C@@H](O)[C@H](O)[C@H]4O[C@@H]4O[C@H](CO)[C@@H](O)[C@H](O)[C@H]4O)C(C)(C)[C@@H]3CC[C@]12C`, the half-maximal inhibitory concentration (IC50) was > 200 µM.
Under `CC(C)=CCC[C@@](C)(O)[C@H]1CC[C@]2(C)[C@@H]1[C@H](O)C[C@@H]1[C@@]3(C)CC[C@H](O[C@@H]4O[C@H](CO)[C@@H](O)[C@H](O)[C@H]4O)C(C)(C)[C@@H]3CC[C@]12C` stands > 200 µM.
Under `CC(C)=CCC[C@](C)(O)[C@H]1CC[C@@]2(C)[C@@H]1[C@@H](O)C[C@@H]1[C@@]3(C)CC[C@H](O)C(C)(C)[C@@H]3[C@@H](O[C@@H]3O[C@H](CO)[C@@H](O)[C@H](O)[C@H]3O[C@@H]3O[C@H](CO)[C@@H](O)[C@H](O)[C@H]3O)C[C@]12C` stands > 200 µM; under `CC(C)=CCC[C@](C)(O[C@@H]1O[C@H](CO)[C@@H](O)[C@H](O)[C@H]1O)[C@H]1CC[C@]2(C)[C@@H]1[C@H](O)C[C@@H]1[C@@]3(C)CC[C@H](O)C(C)(C)[C@@H]3CC[C@]12C`, > 200 µM; under `CC(C)=CCC[C@](C)(O)[C@H]1CC[C@]2(C)[C@@H]1[C@H](O)C[C@@H]1[C@@]3(C)CC[C@H](O[C@@H]4O[C@H](CO)[C@@H](O)[C@H](O)[C@H]4O[C@@H]4O[C@H](CO)[C@@H](O)[C@H](O)[C@H]4O)C(C)(C)[C@@H]3CC[C@]12C`, > 200 µM.
For `CC(C)=CCCC(C)(O)[C@H]1CC[C@]2(C)[C@@H]1[C@H](O)C[C@@H]1[C@@]3(C)CC[C@H](O[C@@H]4O[C@H](CO)[C@@H](O)[C@H](O)[C@H]4O)C(C)(C)[C@@H]3CC[C@]12C` (mixture of isomers), the 50% inhibitory concentration (IC50) is > 200 µM.
For the compound `CC(C)=CCC[C@](C)(O)[C@H]1CC[C@]2(C)[C@@H]1[C@H](O)C[C@@H]1[C@@]3(C)CC[C@H](O)C(C)(C)[C@@H]3[C@@H](O[C@@H]3O[C@H](CO)[C@@H](O)[C@H](O)[C@H]3O)C[C@]12C` [GINSENOSIDE RH1], the IC50 was > 200 µM.
Regarding `CC(C)=CCC[C@](C)(O)[C@H]1CC[C@]2(C)[C@@H]1[C@H](O)C[C@@H]1[C@@]3(C)CC[C@H](O[C@@H]4O[C@H](CO)[C@@H](O)[C@H](O)[C@H]4O)C(C)(C)[C@@H]3CC[C@]12C` [GINSENOSIDE RH2], the 50% inhibitory concentration (IC50) is 147 µM.
